Target: T1, OCT1 (organic cation transporter 1) (Homo sapiens, UniProt O15245)
T1 construct: gene SLC22A1
T1 sequence (O15245 1-554): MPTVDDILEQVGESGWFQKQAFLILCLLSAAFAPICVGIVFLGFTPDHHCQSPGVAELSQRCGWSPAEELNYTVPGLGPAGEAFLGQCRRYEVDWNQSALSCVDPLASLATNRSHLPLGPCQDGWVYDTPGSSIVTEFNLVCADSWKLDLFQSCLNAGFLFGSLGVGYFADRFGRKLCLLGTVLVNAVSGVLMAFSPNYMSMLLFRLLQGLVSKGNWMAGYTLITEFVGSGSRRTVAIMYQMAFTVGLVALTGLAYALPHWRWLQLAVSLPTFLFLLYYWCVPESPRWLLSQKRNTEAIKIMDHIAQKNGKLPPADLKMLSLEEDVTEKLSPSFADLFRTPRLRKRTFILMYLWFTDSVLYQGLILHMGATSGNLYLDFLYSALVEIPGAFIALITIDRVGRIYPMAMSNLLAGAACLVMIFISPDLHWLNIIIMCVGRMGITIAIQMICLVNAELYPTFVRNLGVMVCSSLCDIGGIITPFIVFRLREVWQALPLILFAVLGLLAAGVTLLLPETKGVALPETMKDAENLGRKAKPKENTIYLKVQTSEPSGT
Assay: inhibition of metformin uptake in HEK293-Flp-In-OCT1 cells, […] min pre-incubation, UPLC-MS/MS
Format: cell-based

IC50: 7.5 ± 3.7 µM
SMILES: O[C@@H](COc1cccc2ncccc12)CN1CCN([C@@H]2c3ccccc3[C@@H]3[C@H](c4ccccc42)C3(F)F)CC1 [zosuquidar]

Source: publication PMC12125102, “The “specific” P-glycoprotein inhibitor zosuquidar (LY335979) also weakly inhibits human organic cation transporters” (Naunyn-Schmiedeberg's Archives of Pharmacology, 2024)
